# Measured values taken from ChEMBL document CHEMBL1139722, “N',2-diphenylquinoline-4-carbohydrazide based NK3 receptor antagonists” (Bioorg Med Chem Lett, 2006).
# Active and inactive are the calls of the source.
# Assays:
# Neuromedin-K receptor [1] = target: T1, Neuromedin-K receptor (Homo sapiens, UniProt P29371); experiment: Displacement of [125I]neurokinin B from cloned human NK3 receptor expressed in CHO cells; assay type: cell-based
# T1 sequence (P29371 whole entry): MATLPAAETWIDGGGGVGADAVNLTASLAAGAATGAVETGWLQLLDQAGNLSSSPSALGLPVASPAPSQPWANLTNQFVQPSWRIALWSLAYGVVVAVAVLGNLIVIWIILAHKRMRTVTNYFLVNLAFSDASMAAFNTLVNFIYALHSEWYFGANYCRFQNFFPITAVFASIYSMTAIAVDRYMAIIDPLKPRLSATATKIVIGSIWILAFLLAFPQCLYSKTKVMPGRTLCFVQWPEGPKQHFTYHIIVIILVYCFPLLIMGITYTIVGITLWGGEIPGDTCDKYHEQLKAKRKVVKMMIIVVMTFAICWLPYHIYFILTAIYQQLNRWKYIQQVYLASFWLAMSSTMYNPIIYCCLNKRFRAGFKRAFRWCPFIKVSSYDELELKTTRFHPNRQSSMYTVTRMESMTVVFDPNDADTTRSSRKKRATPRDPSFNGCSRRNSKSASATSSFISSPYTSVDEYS
# PXR (NR1I2) = target: T2, PXR (NR1I2) (Homo sapiens, UniProt O75469); experiment: Increase in human PXR activation expressed in CHO cells relative to rifampicin; assay type: cell-based; conditions: CHO cells expressing human PXR, read-out: Activity
# T2 sequence (O75469 whole entry): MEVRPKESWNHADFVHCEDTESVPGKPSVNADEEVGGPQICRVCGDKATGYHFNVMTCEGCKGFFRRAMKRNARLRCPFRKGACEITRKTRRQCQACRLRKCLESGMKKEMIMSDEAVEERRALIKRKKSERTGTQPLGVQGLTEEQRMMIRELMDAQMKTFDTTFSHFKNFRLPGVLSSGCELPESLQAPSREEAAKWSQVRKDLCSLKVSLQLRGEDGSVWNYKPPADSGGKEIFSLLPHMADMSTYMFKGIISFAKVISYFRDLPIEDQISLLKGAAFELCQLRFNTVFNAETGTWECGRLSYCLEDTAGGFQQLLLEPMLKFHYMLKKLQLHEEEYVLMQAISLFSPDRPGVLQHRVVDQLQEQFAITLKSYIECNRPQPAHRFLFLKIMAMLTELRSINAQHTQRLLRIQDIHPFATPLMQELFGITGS
# [2] = Metabolic stability in rat liver microsomes after 15 mins; assay type: ADME, Microsome; conditions: read-out: Stability
# Gerbil, jird [3] = experiment: Plasma concentration in gerbil at 10 mg/kg, po; assay type: ADME, organism-based; parameters: dose 10 mg/kg, route oral; conditions: meriones, in vivo
# [4] = target: T3, Neuromedin-K receptor (Homo sapiens) (UniProt P29371); experiment: Displacement of [125I]neurokinin B from cloned human NK3 receptor expressed in CHO cells at 1 uM; assay type: cell-based; conditions: filed as antagonist
# T3 sequence (whole entry): T1 sequence (P29371 whole entry)
# Gerbil, jird [5] = experiment: Plasma concentration in gerbil at 75 mg/kg, po; assay type: ADME, organism-based; parameters: dose 75 mg/kg, route oral; conditions: meriones, in vivo
# [6] = target: T3, Neuromedin-K receptor (Homo sapiens); experiment: Activity at human NK3 receptor assessed as stimulation of inositol phosphate generation in CHO cells up to 10 uM; assay type: functional, cell-based
# Neuromedin-K receptor [7] = target: T4, Neuromedin-K receptor (Rattus norvegicus, UniProt P16177); experiment: Binding affinity to rat NK3 receptor
# T4 sequence (P16177 whole entry): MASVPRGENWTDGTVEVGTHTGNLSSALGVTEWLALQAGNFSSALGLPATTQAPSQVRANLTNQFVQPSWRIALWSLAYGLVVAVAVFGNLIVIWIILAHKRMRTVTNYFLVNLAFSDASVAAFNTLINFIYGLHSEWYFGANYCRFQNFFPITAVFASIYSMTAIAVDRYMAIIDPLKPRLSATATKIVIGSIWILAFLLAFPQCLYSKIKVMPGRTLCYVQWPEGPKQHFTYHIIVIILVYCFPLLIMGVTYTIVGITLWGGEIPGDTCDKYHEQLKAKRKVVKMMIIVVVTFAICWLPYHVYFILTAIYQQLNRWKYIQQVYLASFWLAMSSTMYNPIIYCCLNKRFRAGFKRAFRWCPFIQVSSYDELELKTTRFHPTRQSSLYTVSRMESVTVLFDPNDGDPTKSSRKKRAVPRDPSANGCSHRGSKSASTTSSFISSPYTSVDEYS
# [8] = Oral bioavailability in rat; assay type: ADME, organism-based; conditions: in vivo
# [9] = Half life in rat; assay type: ADME, organism-based; conditions: in vivo
# [10] = Oral bioavailability in dog; assay type: ADME, organism-based, Canis lupus familiaris; conditions: in vivo
# [11] = Half life in dog; assay type: ADME, organism-based, Canis lupus familiaris; conditions: in vivo
# Salmonella typhimurium [12] = experiment: Effect on Salmonella Typhimurium mutation in presence of liver microsomal enzymes by Ames assay; assay type: functional, organism-based; conditions: Salmonella enterica subsp. enterica serovar Typhimurium
# Escherichia coli [13] = experiment: Effect on Escherichia coli mutation in presence of liver microsomal enzymes by Ames assay; assay type: functional, organism-based
# [14] = target: T3, Neuromedin-K receptor (Homo sapiens); experiment: Activity at human NK3 receptor assessed as inhibition of eledoisin-induced inositol phosphate generation in CHO cells; assay type: functional, cell-based
# [15] = target: T3, Neuromedin-K receptor (Homo sapiens); experiment: Activity at human NK3 receptor assessed as stimulation of calcium mobilization in CHO cells up to 10 uM; assay type: functional, cell-based
# Substance-P receptor = Substance-P receptor (Homo sapiens, UniProt P25103); experiment: Inhibition of human NK1 receptor
# Sequence of Substance-P receptor (P25103 whole entry): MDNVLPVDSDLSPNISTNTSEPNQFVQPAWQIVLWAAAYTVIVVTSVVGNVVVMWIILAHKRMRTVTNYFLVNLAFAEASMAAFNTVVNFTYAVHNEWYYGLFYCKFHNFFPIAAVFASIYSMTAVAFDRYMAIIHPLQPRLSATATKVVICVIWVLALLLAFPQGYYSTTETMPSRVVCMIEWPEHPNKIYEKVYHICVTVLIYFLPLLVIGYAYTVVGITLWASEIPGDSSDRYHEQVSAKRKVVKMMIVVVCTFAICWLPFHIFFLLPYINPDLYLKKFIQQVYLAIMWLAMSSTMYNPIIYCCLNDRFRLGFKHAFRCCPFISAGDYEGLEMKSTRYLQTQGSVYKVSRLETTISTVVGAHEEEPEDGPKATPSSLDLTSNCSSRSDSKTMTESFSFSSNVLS
# Substance-K receptor = target: T5, Substance-K receptor (Homo sapiens, UniProt P21452); experiment: Inhibition of human NK2 receptor
# T5 sequence (P21452 whole entry): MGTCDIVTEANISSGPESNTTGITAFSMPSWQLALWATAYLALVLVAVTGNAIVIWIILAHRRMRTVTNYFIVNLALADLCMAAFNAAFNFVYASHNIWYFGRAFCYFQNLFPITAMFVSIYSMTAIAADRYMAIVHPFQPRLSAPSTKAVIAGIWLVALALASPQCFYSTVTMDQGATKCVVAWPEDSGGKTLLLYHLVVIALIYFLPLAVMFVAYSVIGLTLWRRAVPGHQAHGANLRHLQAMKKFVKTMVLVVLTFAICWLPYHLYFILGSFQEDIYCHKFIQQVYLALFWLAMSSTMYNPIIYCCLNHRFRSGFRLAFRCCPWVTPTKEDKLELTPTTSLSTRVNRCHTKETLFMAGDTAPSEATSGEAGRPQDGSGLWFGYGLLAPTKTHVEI
# [16] = target: Voltage-gated inwardly rectifying potassium channel KCNH2 (Homo sapiens, UniProt Q12809); experiment: Inhibition of hERG; assay type: toxicity
# Sequence of Voltage-gated inwardly rectifying potassium channel KCNH2 (Q12809 whole entry): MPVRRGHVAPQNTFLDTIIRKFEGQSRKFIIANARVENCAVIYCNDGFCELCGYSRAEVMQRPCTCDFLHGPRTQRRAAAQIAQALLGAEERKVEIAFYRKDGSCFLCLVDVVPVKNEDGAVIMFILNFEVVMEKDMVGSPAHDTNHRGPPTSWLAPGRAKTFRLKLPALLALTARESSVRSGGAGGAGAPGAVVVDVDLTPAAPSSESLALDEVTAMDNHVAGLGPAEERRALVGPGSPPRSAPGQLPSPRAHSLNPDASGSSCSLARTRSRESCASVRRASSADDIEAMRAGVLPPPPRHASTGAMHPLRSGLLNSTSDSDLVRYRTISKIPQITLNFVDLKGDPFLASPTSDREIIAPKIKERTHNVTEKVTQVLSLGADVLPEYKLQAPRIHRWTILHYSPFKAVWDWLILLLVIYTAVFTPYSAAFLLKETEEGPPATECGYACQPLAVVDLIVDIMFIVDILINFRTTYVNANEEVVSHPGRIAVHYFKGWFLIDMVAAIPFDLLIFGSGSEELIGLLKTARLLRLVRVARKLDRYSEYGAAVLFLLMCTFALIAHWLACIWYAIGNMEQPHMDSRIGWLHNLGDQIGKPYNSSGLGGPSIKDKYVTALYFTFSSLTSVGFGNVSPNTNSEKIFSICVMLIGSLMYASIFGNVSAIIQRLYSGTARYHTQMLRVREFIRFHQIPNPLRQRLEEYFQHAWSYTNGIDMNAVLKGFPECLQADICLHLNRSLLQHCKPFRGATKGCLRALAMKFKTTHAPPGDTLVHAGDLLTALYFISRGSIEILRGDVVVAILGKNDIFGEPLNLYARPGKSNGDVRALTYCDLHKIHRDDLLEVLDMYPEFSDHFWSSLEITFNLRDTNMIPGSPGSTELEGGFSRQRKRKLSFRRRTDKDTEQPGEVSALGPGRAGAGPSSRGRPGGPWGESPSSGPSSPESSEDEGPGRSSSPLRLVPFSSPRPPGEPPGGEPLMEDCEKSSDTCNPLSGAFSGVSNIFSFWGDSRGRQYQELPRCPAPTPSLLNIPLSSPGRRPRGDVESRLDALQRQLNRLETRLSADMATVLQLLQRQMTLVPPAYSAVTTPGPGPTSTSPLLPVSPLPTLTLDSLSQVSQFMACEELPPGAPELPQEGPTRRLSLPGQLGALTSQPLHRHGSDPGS
# Cytochrome P450 2C9 = Cytochrome P450 2C9 (Homo sapiens, UniProt P11712); experiment: Inhibition of CYP2C9 in human liver microsomes; assay type: ADME, Microsome
# Sequence of Cytochrome P450 2C9 (P11712 whole entry): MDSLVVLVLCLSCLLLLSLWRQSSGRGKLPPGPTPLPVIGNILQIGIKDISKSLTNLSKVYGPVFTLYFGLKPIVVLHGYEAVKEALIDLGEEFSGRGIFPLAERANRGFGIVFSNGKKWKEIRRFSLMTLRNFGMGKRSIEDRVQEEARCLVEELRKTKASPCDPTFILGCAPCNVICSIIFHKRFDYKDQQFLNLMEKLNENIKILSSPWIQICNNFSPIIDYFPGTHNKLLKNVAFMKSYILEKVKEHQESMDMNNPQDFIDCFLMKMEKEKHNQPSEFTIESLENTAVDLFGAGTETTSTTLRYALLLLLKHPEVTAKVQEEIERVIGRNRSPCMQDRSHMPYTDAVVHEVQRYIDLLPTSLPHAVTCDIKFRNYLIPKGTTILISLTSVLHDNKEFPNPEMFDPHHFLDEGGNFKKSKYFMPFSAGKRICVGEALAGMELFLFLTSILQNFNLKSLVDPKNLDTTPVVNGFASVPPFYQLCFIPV
# Cytochrome P450 2D6 = Cytochrome P450 2D6 (Homo sapiens, UniProt P10635); experiment: Inhibition of CYP2D6 in human liver microsomes; assay type: ADME, Microsome
# Sequence of Cytochrome P450 2D6 (P10635 whole entry): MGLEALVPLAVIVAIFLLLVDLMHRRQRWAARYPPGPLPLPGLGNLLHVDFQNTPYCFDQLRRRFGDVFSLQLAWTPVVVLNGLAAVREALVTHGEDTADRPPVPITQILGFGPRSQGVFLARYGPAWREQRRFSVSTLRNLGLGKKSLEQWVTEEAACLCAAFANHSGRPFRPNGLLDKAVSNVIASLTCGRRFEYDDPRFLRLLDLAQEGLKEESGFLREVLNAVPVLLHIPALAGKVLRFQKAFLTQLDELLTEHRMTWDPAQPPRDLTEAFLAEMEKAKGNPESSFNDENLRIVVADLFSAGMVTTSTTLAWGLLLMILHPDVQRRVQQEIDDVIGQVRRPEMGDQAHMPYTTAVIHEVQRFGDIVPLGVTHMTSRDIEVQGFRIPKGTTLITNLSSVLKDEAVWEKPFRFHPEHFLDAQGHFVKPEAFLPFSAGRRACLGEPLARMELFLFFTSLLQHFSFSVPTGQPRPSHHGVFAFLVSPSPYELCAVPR
# Cytochrome P450 3A4 = Cytochrome P450 3A4 (Homo sapiens, UniProt P08684); experiment: Inhibition of CYP3A4 in human liver microsomes; assay type: ADME, Microsome
# Sequence of Cytochrome P450 3A4 (P08684 whole entry): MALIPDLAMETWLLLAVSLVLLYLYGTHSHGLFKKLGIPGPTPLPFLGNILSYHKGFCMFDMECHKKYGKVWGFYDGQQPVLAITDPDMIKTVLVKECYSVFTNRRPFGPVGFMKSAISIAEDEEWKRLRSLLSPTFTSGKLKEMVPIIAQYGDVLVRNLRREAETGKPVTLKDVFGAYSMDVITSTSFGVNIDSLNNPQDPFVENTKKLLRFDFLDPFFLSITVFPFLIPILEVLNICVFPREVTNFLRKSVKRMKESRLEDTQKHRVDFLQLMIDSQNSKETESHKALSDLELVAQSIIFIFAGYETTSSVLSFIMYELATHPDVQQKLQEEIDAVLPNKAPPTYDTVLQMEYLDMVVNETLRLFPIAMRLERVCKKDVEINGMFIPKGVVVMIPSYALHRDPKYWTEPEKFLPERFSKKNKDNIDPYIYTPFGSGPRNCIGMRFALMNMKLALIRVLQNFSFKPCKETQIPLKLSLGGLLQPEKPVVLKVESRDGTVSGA
# Hepatocyte = experiment: Induction of CYP3A4 in human hepatocytes at 20 uM relative to rifampicin; assay type: functional, cell-based
# Salmonella typhimurium [17] = experiment: Effect on Salmonella Typhimurium mutation in absence of liver microsomal enzymes by Ames assay; assay type: functional, organism-based; conditions: Salmonella enterica subsp. enterica serovar Typhimurium
# Escherichia coli [18] = experiment: Effect on Escherichia coli mutation in absence of liver microsomal enzymes by Ames assay; assay type: functional, organism-based
# Gerbil, jird [19] = experiment: Plasma concentration in gerbil at 30 mg/kg, po; assay type: ADME, organism-based; parameters: dose 30 mg/kg, route oral; conditions: meriones, in vivo
smiles,measurement,setting,value
COC(=O)N(NC(=O)c1c(OC)c(-c2ccccc2)nc2ccccc12)c1ccc(F)cc1,IC50,Neuromedin-K receptor [1],0.033 µM (antagonist)
COC(=O)N(NC(=O)c1c(N)c(-c2ccccc2)nc2ccccc12)c1ccccc1,IC50,Neuromedin-K receptor [1],0.01 µM (antagonist)
same,Emax,PXR (NR1I2),64%
COC(=O)N(NC(=O)c1c(OC)c(-c2ccc(F)cc2)nc2ccccc12)c1ccccc1,IC50,Neuromedin-K receptor [1],0.024 µM (antagonist)
same,Emax,PXR (NR1I2),54%
COc1c(-c2ccccc2)nc2ccccc2c1C(=O)NN(C(C)=O)c1ccccc1,IC50,Neuromedin-K receptor [1],0.21 µM (antagonist)
COc1c(-c2ccccc2)nc2ccccc2c1C(=O)NN(C(=O)OCC(C)C)c1ccccc1,IC50,Neuromedin-K receptor [1],0.19 µM (antagonist)
COC(=O)N(NC(=O)c1c(OC)c(-c2ccccc2)nc2ccccc12)c1cccc(F)c1,IC50,Neuromedin-K receptor [1],0.0074 µM (antagonist)
same,Emax,PXR (NR1I2),54%
COC(=O)N(NC(=O)c1c(OC)c(-c2ccccc2)nc2c(Br)cccc12)c1ccccc1,IC50,Neuromedin-K receptor [1],0.43 µM (antagonist)
same,Emax,PXR (NR1I2),88%
COc1c(-c2ccccc2)nc2ccccc2c1C(=O)NNc1ccccc1,IC50,Neuromedin-K receptor [1],0.032 µM (antagonist)
COc1c(-c2ccccc2)nc2ccccc2c1C(=O)NN(c1ccccc1)c1ccccc1,IC50,Neuromedin-K receptor [1],0.00085 µM (antagonist)
same,Emax,PXR (NR1I2),68%
same,remaining at 0.25 h,[2],65%
same,concentration,"Gerbil, jird [3]",40 nM
COC(=O)N(NC(=O)c1c(OC)c(-c2ccccc2)nc2ccc(F)cc12)c1ccccc1,IC50,Neuromedin-K receptor [1],0.038 µM (antagonist)
same,Emax,PXR (NR1I2),62%
COC(=O)N(NC(=O)c1c(OC)c(-c2ccccc2)nc2c(C(F)(F)F)cccc12)c1ccccc1,Emax,PXR (NR1I2),87%
same,inhibition,[4],27%
COC(=O)N(NC(=O)c1c(OC)c(-c2ccccc2F)nc2ccccc12)c1ccccc1,IC50,Neuromedin-K receptor [1],0.11 µM (antagonist)
CCC(=O)N(NC(=O)c1c(OC)c(-c2ccccc2)nc2ccccc12)c1ccccc1,IC50,Neuromedin-K receptor [1],0.022 µM (antagonist)
COC(=O)N(NC(=O)c1c(OC)c(-c2ccccc2)nc2ccccc12)c1ccccc1F,IC50,Neuromedin-K receptor [1],0.053 µM (antagonist)
COC(=O)N(NC(=O)c1c(OC)c(-c2ccccc2)nc2cc(F)ccc12)c1ccccc1,IC50,Neuromedin-K receptor [1],0.028 µM (antagonist)
same,Emax,PXR (NR1I2),62%
COC(=O)N(NC(=O)c1c(OC)c(-c2ccccc2)nc2c(C#N)cccc12)c1ccccc1,Emax,PXR (NR1I2),87%
same,inhibition,[4],35%
COC(=O)N(NC(=O)c1c(OC)c(-c2ccccc2)nc2cccc(F)c12)c1ccccc1,IC50,Neuromedin-K receptor [1],0.011 µM (antagonist)
same,Emax,PXR (NR1I2),55%
COC(=O)N(NC(=O)c1c(OC)c(-c2ccccc2)nc2c(F)cccc12)c1ccccc1,IC50,Neuromedin-K receptor [1],0.0041 µM (antagonist)
same,Emax,PXR (NR1I2),75%
COC(=O)N(NC(=O)c1cc(-c2ccccc2)nc2ccccc12)c1ccccc1,IC50,Neuromedin-K receptor [1],0.091 µM (antagonist)
same,Emax,PXR (NR1I2),44%
COc1c(-c2ccccc2)nc2ccccc2c1C(=O)NN(C)c1ccccc1,IC50,Neuromedin-K receptor [1],0.057 µM (antagonist)
COC(=O)N(NC(=O)c1c(O)c(-c2ccccc2)nc2ccccc12)c1ccccc1,IC50,Neuromedin-K receptor [1],0.039 µM (antagonist)
CCN(NC(=O)c1c(OC)c(-c2ccccc2)nc2ccccc12)c1ccccc1,IC50,Neuromedin-K receptor [1],0.016 µM (antagonist)
CCOC(=O)N(NC(=O)c1c(OC)c(-c2ccccc2)nc2ccccc12)c1ccccc1,IC50,Neuromedin-K receptor [1],0.06 µM (antagonist)
CC[C@H](NC(=O)c1c(O)c(-c2ccccc2)nc2ccccc12)c1ccccc1 [TALNETANT],Emax,PXR (NR1I2),62%
same,concentration,"Gerbil, jird [5]",3800 nM
COC(=O)N(NC(=O)c1c(OC)c(-c2ccccc2)nc2ccccc12)c1ccccc1,Activity,[6],inactive
same,Emax,PXR (NR1I2),49%
same,remaining at 0.25 h,[2],21%
same,IC50,Neuromedin-K receptor [7],0.066 µM (antagonist)
same,bioavailability,[8],43%
same,half-life,[9],4.6 h
same,bioavailability,[10],36%
same,half-life,[11],3 h
same,Activity,Salmonella typhimurium [12],inactive
same,Activity,Escherichia coli [13],inactive
same,Activity,[14],Dose-dependent effect
same,Activity,[15],inactive
same,IC50,Substance-P receptor,> 1 µM
same,IC50,Substance-K receptor,> 1 µM
same,Ki,[16],> 8 µM
same,IC50,Cytochrome P450 2C9,> 30 µM
same,IC50,Cytochrome P450 2D6,> 30 µM
same,IC50,Cytochrome P450 3A4,12 µM
same,Activity,Hepatocyte,Active
same,Activity,Salmonella typhimurium [17],inactive
same,Activity,Escherichia coli [18],inactive
same,concentration,"Gerbil, jird [19]",950 nM
COC(=O)N(NC(=O)c1c(C)c(-c2ccccc2)nc2ccccc12)c1ccccc1,IC50,Neuromedin-K receptor [1],0.0084 µM (antagonist)
same,Emax,PXR (NR1I2),56%
COC(=O)N(NC(=O)c1c(OC)c(-c2cccc(F)c2)nc2ccccc12)c1ccccc1,IC50,Neuromedin-K receptor [1],0.022 µM (antagonist)
same,Emax,PXR (NR1I2),69%
